Values after ≈ are worked out from the molar mass of the structure shown.
Columns and labels:
[1] = Inhibition of Mycobacterium tuberculosis Anthranilate phosphoribosyltransferase expressed in Escherichia coli BL21(DE3) pRIL cells harboring PRAI-InGPS preincubated for 10 mins followed by anthranilate addition in presence of PRPP
[2] = tested on: Mycobacterium tuberculosis; assay: Antimycobacterial activity against isoniazid resistant Mycobacterium tuberculosis BAA-812 incubated for 2 weeks; format: functional; conditions: BAA-812, 336 h
[3] = tested on: Mycobacterium tuberculosis; assay: Antimycobacterial activity against ofloxacin/isoniazid resistant Mycobacterium tuberculosis CI-14 incubated for 2 weeks; format: functional; conditions: CI-14, 336 h
[4] = tested on: Mycobacterium tuberculosis; assay: Antimycobacterial activity against streptomycin resistant Mycobacterium tuberculosis 98-01436 incubated for 2 weeks; format: functional; conditions: 98-01436, 336 h
[5] = tested on: Mycobacterium tuberculosis; assay: Antimycobacterial activity against ofloxacin resistant Mycobacterium tuberculosis CI-10 incubated for 2 weeks; format: functional; conditions: CI-10, 336 h
[6] = tested on: Mycobacterium tuberculosis; assay: Antimycobacterial activity against isoniazid/streptomycin resistant Mycobacterium tuberculosis 01-R0348 incubated for 2 weeks; format: functional; conditions: 01-R0348, 336 h
[7] = tested on: Mycobacterium tuberculosis; assay: Inhibition of Mycobacterium tuberculosis Anthranilate phosphoribosyltransferase expressed in Escherichia coli BL21(DE3) pRIL cells harboring PRAI-InGPS assessed as residual activity preincubated for 10 mins followed by anthranilate addition in presence of PRPP relative to control

## Cc1cccc(C(=O)O)c1Nc1cc(Br)ccc1C(=O)O
[1]
  IC50: 3.3 µM

## N#C[C@@H]1N[C@@H](CO)[C@H]1c1ccc(-c2ccccc2F)cc1
[2]
  MIC90: 3 µM (≈ 0.847 µg/mL)
[3]
  MIC90: 3 µM (≈ 0.847 µg/mL)
[4]
  MIC90: 1.6 µM (≈ 0.452 µg/mL)
[5]
  MIC90: 1.6 µM (≈ 0.452 µg/mL)
[6]
  MIC90: 1.6 µM (≈ 0.452 µg/mL)

## Cc1cccc(C(=O)O)c1Nc1cc(Cl)ccc1C(=O)O
[1]
  IC50: 5.8 µM

## Cc1ccc(C(=O)O)c(Nc2c(C)cccc2C(=O)O)c1
[1]
  IC50: 6.8 µM

## O=C(O)c1ccccc1Nc1cccc(Nc2ccccc2C(=O)O)c1C(=O)O
[7]
  Activity: 6%
[1]
  IC50: 2.2 µM
